# pIC50: −log10 of the molar value.
# Experiments:
# Test in all cases: IC50 for competition of protein binding to Kinobeads
# Conditions in all cases: assay detail: Kinobeads competition in P. falciparum blood-stage lysate
# [1] = target: UniProt Q8I1V2
# [2] = target: UniProt Q8IDB8
# [3] = target: UniProt Q8I1V0
# [4] = target: UniProt Q7KQK3
# [5] = target: UniProt Q8IIJ6
# [6] = target: UniProt Q8IL86
# [7] = target: UniProt Q8IIA2
# [8] = target: UniProt Q8I5Y3
# [9] = target: UniProt Q8II00
# [10] = target: UniProt Q8I534
# [11] = target: UniProt C6KT96
# [12] = target: UniProt Q8IJC7
# [13] = target: UniProt Q8IC33
# [14] = target: UniProt Q8IAR7
# [15] = target: UniProt Q8IKU1
# [16] = target: UniProt Q9TY95
# Sequence of UniProt Q9TY95 (Q9TY95 whole entry): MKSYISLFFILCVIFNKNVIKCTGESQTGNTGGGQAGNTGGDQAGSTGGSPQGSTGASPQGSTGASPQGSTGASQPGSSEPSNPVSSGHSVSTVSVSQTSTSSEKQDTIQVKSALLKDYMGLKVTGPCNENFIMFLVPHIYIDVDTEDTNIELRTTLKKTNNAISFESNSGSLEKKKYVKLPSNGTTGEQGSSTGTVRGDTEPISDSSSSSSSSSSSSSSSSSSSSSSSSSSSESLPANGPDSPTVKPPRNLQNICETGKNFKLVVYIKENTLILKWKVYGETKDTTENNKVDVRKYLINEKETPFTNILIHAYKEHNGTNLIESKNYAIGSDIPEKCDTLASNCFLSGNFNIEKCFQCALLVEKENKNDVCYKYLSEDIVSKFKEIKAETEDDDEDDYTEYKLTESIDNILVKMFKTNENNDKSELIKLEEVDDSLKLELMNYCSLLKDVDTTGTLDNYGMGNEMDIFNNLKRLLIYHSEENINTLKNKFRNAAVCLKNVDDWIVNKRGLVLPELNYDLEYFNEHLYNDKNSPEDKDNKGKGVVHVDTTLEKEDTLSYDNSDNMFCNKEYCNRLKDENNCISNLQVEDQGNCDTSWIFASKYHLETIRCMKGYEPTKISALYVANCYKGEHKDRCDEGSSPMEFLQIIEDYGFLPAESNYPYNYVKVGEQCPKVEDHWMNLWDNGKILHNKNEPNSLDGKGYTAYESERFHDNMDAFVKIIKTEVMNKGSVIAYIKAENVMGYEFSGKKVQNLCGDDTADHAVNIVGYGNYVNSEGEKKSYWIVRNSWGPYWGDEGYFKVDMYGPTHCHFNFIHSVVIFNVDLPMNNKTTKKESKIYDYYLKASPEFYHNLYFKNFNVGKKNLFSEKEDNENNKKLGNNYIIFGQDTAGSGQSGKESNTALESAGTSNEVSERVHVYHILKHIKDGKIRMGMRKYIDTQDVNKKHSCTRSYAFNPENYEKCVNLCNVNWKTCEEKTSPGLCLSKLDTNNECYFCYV
# [17] = target: UniProt C0H4X1
# [18] = target: UniProt Q8II11
# [19] = target: UniProt Q8I3I6
# [20] = target: UniProt Q8IKK4
# [21] = target: UniProt Q8I4Z2
# [22] = target: UniProt Q8I1R6
# [23] = target: UniProt Q8ILZ7
# [24] = target: UniProt Q8IAW0
# [25] = target: UniProt Q8I1N8
# [26] = target: UniProt O77306
# [27] = target: UniProt Q8IBI0
# [28] = target: UniProt O77330
# [29] = target: UniProt O77396
# [30] = target: UniProt Q8ID42
# [31] = target: UniProt Q8I3F0
# [32] = target: UniProt Q8ILK1
# [33] = target: UniProt Q8I5C6
# [34] = target: UniProt O77358
# [35] = target: UniProt Q8IJ74
# [36] = target: UniProt Q8I5H7
# [37] = target: UniProt Q8IKS3
# [38] = target: UniProt C6KT23
# [39] = target: UniProt O96220
# [40] = target: UniProt Q8IDV1
# [41] = target: UniProt Q8IIB6
# [42] = target: UniProt Q8I3Z1
# [43] = target: UniProt Q8IJ60
# [44] = target: UniProt Q8IIW6
# [45] = target: UniProt Q8I5E2
# [46] = target: UniProt Q8IIL7
# [47] = target: UniProt Q8IJW3
# [48] = target: UniProt Q8IC16
# [49] = target: UniProt C0H529
# [50] = target: UniProt Q6ZLZ9
# [51] = target: UniProt Q8I3L4
# 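Note: native unpurified kinases from lysate captured on beads bearing immobilized kinase inhibitors, with bead-bound kinases quantified by mass spectrometry across compound doses.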
# Sequence of UniProt Q8IIJ6 (Q8IIJ6 whole entry): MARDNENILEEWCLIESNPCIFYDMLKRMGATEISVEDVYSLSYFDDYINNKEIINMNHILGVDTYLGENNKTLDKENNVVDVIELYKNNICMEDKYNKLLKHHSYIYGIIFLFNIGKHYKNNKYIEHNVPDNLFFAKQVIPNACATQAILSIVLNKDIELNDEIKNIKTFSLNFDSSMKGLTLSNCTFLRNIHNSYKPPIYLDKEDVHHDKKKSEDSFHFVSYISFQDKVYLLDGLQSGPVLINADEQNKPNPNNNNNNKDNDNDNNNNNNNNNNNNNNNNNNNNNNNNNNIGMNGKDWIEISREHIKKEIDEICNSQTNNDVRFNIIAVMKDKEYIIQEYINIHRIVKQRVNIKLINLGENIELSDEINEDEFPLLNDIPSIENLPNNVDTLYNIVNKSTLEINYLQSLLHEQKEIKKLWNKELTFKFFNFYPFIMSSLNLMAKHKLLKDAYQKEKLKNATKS
smiles,measurement,setting,value
O=c1[nH]c2ccc(Cl)cc2c(NC2CN3CCC2CC3)c1-c1nc2ccccc2[nH]1 (stereo unspecified) [CHIR-124],pIC50,[1],< 4.70
same,pIC50,[2],< 4.70
same,pIC50,[3],< 4.70
same,pIC50,[4],< 4.70
same,pIC50,[5],< 4.70
same,pIC50,[6],< 4.70
same,pIC50,[7],< 4.70
same,pIC50,[8],< 4.70
same,pIC50,[9],< 4.70
same,pIC50,[10],< 4.70
same,pIC50,[11],< 4.70
same,pIC50,[12],< 4.70
same,pIC50,[13],< 4.70
same,pIC50,[14],< 4.70
same,pIC50,[15],< 4.70
same,pIC50,[16],< 4.70
same,pIC50,[17],< 4.70
same,pIC50,[18],> 7.08
same,pIC50,[19],< 4.70
same,pIC50,[20],< 4.70
same,pIC50,[21],< 4.70
same,pIC50,[22],< 4.70
same,pIC50,[23],< 4.70
same,pIC50,[24],< 4.70
same,pIC50,[25],< 4.70
same,pIC50,[26],< 4.70
same,pIC50,[27],< 4.70
same,pIC50,[28],< 4.70
same,pIC50,[29],< 4.70
same,pIC50,[30],< 4.70
same,pIC50,[31],< 4.70
same,pIC50,[32],< 4.70
same,pIC50,[33],< 4.70
same,pIC50,[34],< 4.70
same,pIC50,[35],< 4.70
same,pIC50,[36],< 4.70
same,pIC50,[37],< 4.70
same,pIC50,[38],< 4.70
same,pIC50,[39],< 4.70
same,pIC50,[40],< 4.70
same,pIC50,[41],< 4.70
same,pIC50,[42],< 4.70
same,pIC50,[43],< 4.70
same,pIC50,[44],6.60
same,pIC50,[45],< 4.70
same,pIC50,[46],< 4.70
same,pIC50,[47],< 4.70
same,pIC50,[48],< 4.70
same,pIC50,[49],< 4.70
same,pIC50,[50],< 4.70
same,pIC50,[51],< 4.70

# Source: the supplement of paper PMC13386468
